Measurements reported in patent US20050197371A1, “Urea derivatives as PDGFR modulators” (Ambit Biosciences Corporation, priority 2003, published 2005).

What follows are molecules tested against T1, PDGFRB(JMplus) (PDGFR-β) (Homo sapiens, UniProt P09619) (assay: Phage-display competitive binding assay, PDGFRB(JMplus)). Conditions: not given.
T1 construct: PDGFRB(JMplus)
Protocol: (§1) Briefly, T7 phage displaying human PDGFR-β were incubated with an affinity matrix coated with known PDGFR-β inhibitor in the presence of various concentrations of the soluble competitor molecules.

T1 sequence (P09619 600-962 limits assumed): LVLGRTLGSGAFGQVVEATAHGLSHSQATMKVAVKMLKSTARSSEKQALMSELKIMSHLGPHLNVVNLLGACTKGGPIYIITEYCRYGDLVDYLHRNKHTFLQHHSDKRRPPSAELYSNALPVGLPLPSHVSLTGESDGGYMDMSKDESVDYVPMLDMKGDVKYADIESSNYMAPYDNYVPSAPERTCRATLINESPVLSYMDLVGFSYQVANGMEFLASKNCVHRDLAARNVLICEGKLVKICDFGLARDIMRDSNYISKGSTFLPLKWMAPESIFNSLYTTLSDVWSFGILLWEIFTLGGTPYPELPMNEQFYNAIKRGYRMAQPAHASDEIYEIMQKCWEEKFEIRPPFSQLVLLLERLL

| Kd [µM] | Structure (SMILES) |
| --- | --- |
| < 0.1 | CC(C)(C)c1cc(NC(=O)Nc2ccc(NC(=O)c3ncccc3O)cc2)no1 [Compound N134] |

Same assay, conditions: T7 phage displaying human PDGFR-β, JMplus construct; read-out: Binding Assay: PDGFRB(JMplus)

| Kd [µM] | Structure (SMILES) |
| --- | --- |
| < 0.1 | CC(C)(C)c1cc(NC(=O)Nc2ccc(NC(=O)c3ccccn3)cc2)no1 [Compound N188] |

What follows are molecules tested against T2, PDGFRB(DKIN) (PDGFR-β) (Homo sapiens, UniProt P09619) (assay: Phage-display competitive binding assay, PDGFRB(DKIN)). Conditions: T7 phage displaying human PDGFR-β, DKIN construct; read-out: Binding Assay: PDGFRB(DKIN).
T2 construct: PDGFRB(DKIN)
Protocol: The term “ND” represents non-determined values.
as §1

| Structure (SMILES) | Kd [µM] |
| --- | --- |
| CC(C)(C)c1cc(NC(=O)Nc2ccc(NC(=O)c3ccccn3)cc2)no1 [Compound N188] | < 0.1 |
| Cc1nc(N)cc(Nc2ccc(NC(=O)Nc3cc(C(C)(C)C)on3)cc2)n1 [Compound O10] | 0.1 to 1 |
| COc1ccc(-c2noc(-c3ccc(NC(=O)Nc4cc(C(C)(C)C)on4)cc3)n2)c2ccccc12 [Compound P3] | 1 to 10 |
| Cc1ccccc1-c1noc(-c2ccc(NC(=O)Nc3cc(C(C)(C)C)on3)cc2)n1 [Compound P4] | < 0.1 |
| CC(C)(C)c1cc(NC(=O)Nc2ccc(-c3nc(-c4cccc5ccccc45)no3)cc2)no1 [Compound P5] | 0.1 to 1 |
| CC(C)(C)c1cc(NC(=O)Nc2ccc(-c3nc(-c4ccc(Cl)cc4)no3)cc2)no1 [Compound P7] | 0.1 to 1 |
| CC(C)(C)c1cc(NC(=O)Nc2ccc(-c3nc(-c4ccc(C(F)(F)F)cc4)no3)cc2)no1 [Compound P8] | > 10 |
| Cc1noc(-c2ccc(NC(=O)Nc3cc(C(C)(C)C)on3)cc2)n1 [Compound P9] | < 0.1 |

Now from value to molecule:

| Kd [µM] | Structure (SMILES) |
| --- | --- |
| 1 to 10 | CC(C)(C)c1cc(NC(=O)Nc2ccc(NS(=O)(=O)c3ccccc3)cc2)no1 [Compound V1] |
| 1 to 10 | Cc1ccc(S(=O)(=O)Nc2ccc(NC(=O)Nc3cc(C(C)(C)C)on3)cc2)cc1 [Compound V2] |
| > 10 | CC(C)(C)c1cc(NC(=O)Nc2ccc(S(=O)(=O)Nc3ncccn3)cc2)no1 [Compound V3] |
| > 10 | CC(=O)NS(=O)(=O)c1ccc(NC(=O)Nc2cc(C(C)(C)C)on2)cc1 [Compound V4] |
| 0.1 to 1 | Cc1ccc(NC(=O)Nc2cc(C(F)(F)F)cc(Cl)n2)cc1 [Compound W1] |
| 1 to 10 | O=C(Nc1ccc(Cl)cc1)Nc1ccno1 [Compound Z15] |
| > 10 | CC(C)CCOC(=O)c1nnsc1NC(=O)Nc1ccc(Br)cc1 [Compound Z36] |
| > 10 | Cc1c(NC(=O)Nc2cc(C(C)(C)C)on2)c(=O)n(-c2ccccc2)n1C [Compound Z45] |
| 0.1 to 1 | Cn1c(SCC(=O)Nc2ccc(NC(=O)Nc3cc(C(C)(C)C)on3)cc2)nnc1-c1cccn(Cc2ccccc2)c1=O [Compound Z47] |
| < 0.1 | O=C(Nc1ccc(Cl)cc1)Nc1ccc(-n2nc(Br)c(Br)c2Br)cc1 [Compound Z49] |
| 1 to 10 | C=C/C(=C\C=C\Cl)NC(=O)Nc1ccc(C(=O)OCCOC)cc1 [Compound Z54] |
| > 10 | NC(=O)c1c(NC(=O)Nc2ccc(Cl)c(Cl)c2)sc2c1CCCC2 [Compound Z56] |
| > 10 | Cc1sc(NC(=O)Nc2ccc(Cl)cc2)c(C(N)=O)c1C [Compound Z58] |
| 0.1 to 1 | O=C(Nc1ccccc1)Nc1ccc(-n2cnc(Cl)c2Cl)cc1 [Compound Z65] |
| 0.1 to 1 | COc1ccc(NC(=O)Nc2cc(C(F)(F)F)cc(Cl)n2)cc1 [Compound Z71] |
| > 10 | O=C(Nc1ccc(Br)cc1)Nc1cc(C(F)(F)F)cc(Cl)n1 [Compound Z72] |
| > 10 | O=C(Nc1ccc(Cl)cc1)Nc1cc(C(F)(F)F)cc(Cl)n1 [Compound Z76] |

Same assay, conditions: read-out: Binding Assay: PDGFRB(DKIN); T7 phage displaying human PDGFR-β, DKIN construct

| Kd [µM] | Structure (SMILES) |
| --- | --- |
| < 0.1 | CC(C)(C)c1cc(NC(=O)Nc2ccc(NC(=O)c3ncccc3O)cc2)no1 [Compound N134] |

These molecules were tested against T3, PDGFRB(JMminus) (PDGFR-β) (Homo sapiens, UniProt P09619) (assay: Phage-display competitive binding assay, PDGFRB(JMminus)). Conditions: not given.
T3 construct: PDGFRB(JMminus)
Protocol: as §1

T3 sequence (P09619 600-962 limits assumed): as above

| Kd [µM] | Structure (SMILES) |
| --- | --- |
| < 0.1 | CC(C)(C)c1cc(NC(=O)Nc2ccc(NC(=O)c3ncccc3O)cc2)no1 [Compound N134] |

Same assay, conditions: T7 phage displaying human PDGFR-β, JMminus construct; read-out: Binding Assay: PDGFRB(JMminus)

| Kd [µM] | Structure (SMILES) |
| --- | --- |
| < 0.1 | CC(C)(C)c1cc(NC(=O)Nc2ccc(NC(=O)c3ccccn3)cc2)no1 [Compound N188] |
